Drawing on patent US20230257366A1, “SULFUR-CONTAINING ISOINDOLINE DERIVATIVE, AND PREPARATION METHOD THEREFOR AND MEDICAL USE THEREOF” (JIANGSU HENGRUI PHARMACEUTICALS CO., LTD., priority 2020, published 2023), this text covers IC50 for 17 molecules.

For this test, the system named is NCI-H929 cells. The test can be described thus: NCI-H929 proliferation experiment (CellTiter-Glo, 5 days). The note with it: Homo sapiens, 120 h, 5 days incubation, read-out: IC50 values for the inhibition of proliferation of NCI-H929 cells. In kind it is cell-based. The protocol:
The following method was used to determine the inhibitory activity of the compounds of the present disclosure on the proliferation of NCI-H929 cells. The experimental method was briefly described as follows.
NCI-H929 cells (ATCC, CRL-9068) were cultured in a complete medium (RPMI 1640 medium (Hyclone, SH30809.01) containing 10% fetal bovine serum (Corning, 35-076-CV) and 0.05 mM 2-mercaptoethanol (Sigma, M3148)). On the first day of the experiment, NCI-H929 cells were seeded in a 96-well plate at a density of 6000 cells/well with a complete medium to form 100 μL of cell suspension per well, and 10 μL of test compound prepared in a complete medium and diluted in a gradient was added to each well. The compound was firstly dissolved in DMSO, with an initial concentration of 10 mM, and then subjected to serial dilution at a 5-fold concentration gradient for a total of 9 concentration points, with a blank control of 100% DMSO. Another 5 μL of the compound dissolved in DMSO was added to 95 μL of complete medium, i.e., the compound was diluted 20-fold with the complete medium. Finally the compound diluted in the complete medium at 10 μL/well was added to the cell suspension, wherein the final concentrations of the compound were 9 concentration points obtained by 5-fold gradient dilution starting from 50 μM. A blank control containing 0.5% DMSO was set. The plate was incubated in a cell incubator at 37° C. with 5% CO2 for 5 days. On the sixth day, the 96-well cell culture plate was taken out, added with a CellTiter-Glo® luminescent cell activity detect reagent (Promega, G7573) at 50 μL/well, left to stand at room temperature for 10 min, and read for the luminescence signal values using a multi-mode microplate reader (PerkinElmer, EnVision 2015). IC50 values for the inhibitory activity of the compounds were calculated using Graphpad Prism software, with the results shown in Table 1.
In general terms: Cellular ATP, detected with luciferase, serves as a proxy for viable cell number.

As for `N#Cc1ccc(N2CCC(Sc3ccc(COc4cccc5c4CN(C4CCC(=O)NC4=O)C5=O)cc3)CC2)c(F)c1` (centres unmarked) [Compound 1, 4-(4-((4-(((2-(2,6-dioxopiperidin-3-yl)-1-oxoisoindolin-4-yl)oxy)methyl)phenyl)thio)piperidin-1-yl)-3-fluorobenzonitrile], the IC50 turned out to be 0.34 nM. The result for `N#Cc1ccc(N2CCC(Sc3ccc(COc4cccc5c4C(=O)N(C4CCC(=O)NC4=O)C5=O)cc3)CC2)c(F)c1` (centres unmarked) [Compound 2, 4-(4-((4-(((2-(2,6-dioxopiperidin-3-yl)-1,3-dioxoisoindolin-4-yl)oxy)methyl)phenyl)thio)piperidin-1-yl)-3-fluorobenzonitrile] reads 4.36 nM; that for `N#Cc1ccc(N2CCC(Sc3ccc(COc4cccc5c4CN([C@H]4CCC(=O)NC4=O)C5=O)cc3)CC2)c(F)c1` [Compound 3, (S)-4-(4-((4-(((2-(2,6-dioxopiperidin-3-yl)-1-oxoisoindolin-4-yl)oxy)methyl)phenyl)thio)piperidin-1-yl)-3-fluorobenzonitrile], 0.1 nM; that for `N#Cc1ccc(N2CCC(Sc3ccc(COc4cccc5c4CN([C@H]4CCC(=O)NC4=O)C5=O)cc3F)CC2)c(F)c1` [Compound 4, (S)-4-(4-((4-(((2-(2,6-dioxopiperidin-3-yl)-1-oxoisoindolin-4-yl)oxy)methyl)-2-fluorophenyl)thio)piperidin-1-yl)-3-fluorobenzonitrile], 0.17 nM. The result for `N#Cc1ccc(N2CCC(Sc3ccc(COc4cccc5c4CN([C@H]4CCC(=O)NC4=O)C5=O)c(F)c3)CC2)c(F)c1` [Compound 5, (S)-4-(4-((4-(((2-(2,6-dioxopiperidin-3-yl)-1-oxoisoindolin-4-yl)oxy)methyl)-3-fluorophenyl)thio)piperidin-1-yl)-3-fluorobenzonitrile] reads 0.08 nM; that for `N#Cc1ccc(N2CCC(Sc3ncc(COc4cccc5c4CN([C@H]4CCC(=O)NC4=O)C5=O)cn3)CC2)c(F)c1` [Compound 7, (S)-4-(4-((5-(((2-(2,6-dioxopiperidin-3-yl)-1-oxoisoindolin-4-yl)oxy)methyl)pyrimidin-2-yl)thio)piperidin-1-yl)-3-fluorobenzonitrile], 0.13 nM.

Take `N#Cc1ccc(N2CCC(Sc3ccc(COc4cc(F)cc5c4CN([C@H]4CCC(=O)NC4=O)C5=O)cn3)CC2)c(F)c1` [Compound 8, (S)-4-(4-((5-(((2-(2,6-dioxopiperidin-3-yl)-6-fluoro-1-oxoisoindolin-4-yl)oxy)methyl)pyridin-2-yl)thio)piperidin-1-yl)-3-fluorobenzonitrile]: the IC50 is 0.28 nM. The result for `N#Cc1ccc(N2CCC(Sc3ccc(COc4cccc5c4CN([C@H]4CCC(=O)NC4=O)C5=O)nc3)CC2)c(F)c1` [Compound 9, (S)-4-(4-((6-(((2-(2,6-dioxopiperidin-3-yl)-1-oxoisoindolin-4-yl)oxy)methyl)pyridin-3-yl)thio)piperidin-1-yl)-3-fluorobenzonitrile] reads 0.9 nM; that for `N#Cc1ccc(N2CCC(Sc3ccc(COc4cccc5c4CN([C@H]4CCC(=O)NC4=O)C5=O)c(F)c3F)CC2)c(F)c1` [Compound 10, (S)-4-(4-((4-(((2-(2,6-dioxopiperidin-3-yl)-1-oxoisoindolin-4-yl)oxy)methyl)-2,3-difluorophenyl)thio)piperidin-1-yl)-3-fluorobenzonitrile], 0.18 nM; that for `N#Cc1ccc(N2CCC(Sc3cc(F)c(COc4cccc5c4CN([C@H]4CCC(=O)NC4=O)C5=O)cc3F)CC2)c(F)c1` [Compound 11, (S)-4-(4-((4-(((2-(2,6-dioxopiperidin-3-yl)-1-oxoisoindolin-4-yl)oxy)methyl)-2,5-difluorophenyl)thio)piperidin-1-yl)-3-fluorobenzonitrile], 0.22 nM.

Regarding `N#Cc1ccc(N2CCC(Sc3c(F)cc(COc4cccc5c4CN([C@H]4CCC(=O)NC4=O)C5=O)cc3F)CC2)c(F)c1` [Compound 12, (S)-4-(4-((4-(((2-(2,6-dioxopiperidin-3-yl)-1-oxoisoindolin-4-yl)oxy)methyl)-2,6-difluorophenyl)thio)piperidin-1-yl)-3-fluorobenzonitrile], the IC50 is 0.61 nM. For the molecule `Cc1nc(SC2CCN(c3ccc(C#N)cc3F)CC2)ccc1COc1cccc2c1CN([C@H]1CCC(=O)NC1=O)C2=O` [Compound 13, (S)-4-(4-((5-(((2-(2,6-dioxopiperidin-3-yl)-1-oxoisoindolin-4-yl)oxy)methyl)-6-methylpyridin-2-yl)thio)piperidin-1-yl)-3-fluorobenzonitrile], the IC50 worked out at 1.78 nM. The result for `N#Cc1ccc(N2CCC(Sc3ccc(COc4cccc5c4CN([C@H]4CCC(=O)NC4=O)C5=O)cc3Cl)CC2)c(F)c1` [Compound 14, (S)-4-(4-((2-chloro-4-(((2-(2,6-dioxopiperidin-3-yl)-1-oxoisoindolin-4-yl)oxy)methyl)phenyl)thio)piperidin-1-yl)-3-fluorobenzonitrile] reads 0.27 nM; that for `N#Cc1ccc(N2CCC(Sc3ccc(COc4cccc5c4CN([C@H]4CCC(=O)NC4=O)C5=O)cn3)C2)c(F)c1` (stereo partly drawn) [Compound 15, 4-(3-((5-(((2-((S)-2,6-dioxopiperidin-3-yl)-1-oxoisoindolin-4-yl)oxy)methyl)pyridin-2-yl)thio)pyrrolidin-1-yl)-3-fluorobenzonitrile], 0.75 nM.

Turning to `N#Cc1ccc(N2CC(Sc3ccc(COc4cccc5c4CN([C@H]4CCC(=O)NC4=O)C5=O)cc3)C2)c(F)c1` [Compound 16, (S)-4-(3-((4-(((2-(2,6-dioxopiperidin-3-yl)-1-oxoisoindolin-4-yl)oxy)methyl)phenyl)thio)azetidin-1-yl)-3-fluorobenzonitrile], the IC50 was 1.13 nM. The result for `N#Cc1ccc(N2CCC(Sc3ccc(COc4cccc5c4CN([C@H]4CCC(=O)NC4=O)C5=O)c(F)n3)CC2)c(F)c1` [Compound 17, (S)-4-(4-((5-(((2-(2,6-dioxopiperidin-3-yl)-1-oxoisoindolin-4-yl)oxy)methyl)-6-fluoropyridin-2-yl)thio)piperidin-1-yl)-3-fluorobenzonitrile] reads 0.21 nM; that for `N#Cc1ccc(N2CCC(Sc3cc(F)c(COc4cccc5c4CN([C@H]4CCC(=O)NC4=O)C5=O)c(F)c3)CC2)c(F)c1` [Compound 18, (S)-4-(4-((4-(((2-(2,6-dioxopiperidin-3-yl)-1-oxoisoindolin-4-yl)oxy)methyl)-3,5-difluorophenyl)thio)piperidin-1-yl)-3-fluorobenzonitrile], 0.34 nM.
